In assay [1] the test system is HCMV AD169-GFP. As to the kind of experiment: HCMV AD169-GFP replication assay in U373 cells. The assay is classed as cell-based, human cytomegalovirus. Conditions: Human betaherpesvirus 5, AD169, U373 MG, read-out: EC50 AD169-GFP. How it is done: (i.e., 1 × TCID25/7d). Immediately after virus adsorption, the cells were treated with antiviral compounds or solvent control (DMSO). Infections were performed in biological quadruplicates, or as indicated for individual experiments. The cells were fixed by the addition of 150 µL 10% formalin/well 7 d p.i. (Merlin-GFP 14 d p.i.), and washed with PBS. For GFP or YFP quantitation, the Victor X4 microplate reader (PerkinElmer, Waltham, MA, USA) was primarily used, or as a very sensitive alternative, the ImageXpress® Pico device (Molecular Devices LLC, San Jose, CA, USA). Mean EC50 values of antiviral efficacy were calculated on the basis of three experimental replicates or as indicated (measurement of fluorescence values in quadruplicate), and percentage values were provided relative to the solvent control (DMSO).

Assay [2] deals with ChCMV strain Herberling. The assay can be described thus: ChCMV replication assay in HFFs (immunofluorescence). It is filed as cell-based, chimpanzee cytomegalovirus. The conditions noted are these: in Pan troglodytes, n = 2. From the text:
Similarly, 2 × 10^4 primary embryonic guinea pig fibroblasts GPEFs/96-well, or 1.35 × 10^4 HFFs/96-well, or 2 × 10^4 rat REFs/96-well, or 2 × 10^4 murine MEFs/96-well, were cultivated for infection with GPCMV-GFP, RhCMV-GFP, ChCMV, RCMV-mCherry, or MCMV-GFP, respectively (all approx. MOI of 0.01 referring to 1 × TCID25), and were used for the assessment of antiviral drug activity. To this end, cells were fixed 7 d p.i. (RCMV-mCherry 4 d p.i.), before GFP or mCherry expression was quantified using the Victor X4 microplate reader, or other viral replication markers were measured as explained for the individual experiments. ChCMV replication in HFFs was monitored and quantified by the use of Anti-Cytomegalovirus Antibody Alexa Fluor™ 488. For immunofluorescence staining with Anti-Cytomegalovirus Antibody Alexa Fluor™ 488 (Sigma Aldrich, St. Louis, MO, USA; solution in PBS with 1% FCS), the infected cells were fixed at 7 d p.i. with 10% formalin and permeabilized with 0.2% Triton-x-100. Cell nuclei were counterstained using Höchst dye to be measured using the ImageXpress Pico (Molecular Devices, LLC, San Jose, CA, USA). Mean EC50 values of antiviral efficacy were calculated on the basis of three experimental replicates or as indicated (measurement of fluorescence values in quadruplicate), and percentage values were provided relative to the solvent control (DMSO).

Assay [3] concerns JCPyV strain Mad-4. The assay can be described thus: JCPyV replication assay in COS-7 cells (qPCR). The assay is classed as cell-based, human polyomavirus. Conditions: Polyomavirus sp.; JCPyV strain Mad-4 in COS-7 cells, n = 1. How it is done: Primary human foreskin fibroblasts (HFFs; obtained from clinical samples at Children’s Hospital in Erlangen, Germany), guinea pig embryonic fibroblasts (GPEFs; generously provided by Mark R. Schleiss from the University of Minnesota in Minneapolis, MN, USA), and rat embryonic fibroblasts were cultivated in Eagle’s Minimal Essential Medium (MEM) supplemented with 1 × GlutaMAX™ (both from Thermo Fisher Scientific, Waltham, MA, USA), 10 µg/mL gentamicin, and 10% fetal bovine serum (FBS; Capricorn, Ebsdorfergrund, Germany). Human glioblastoma–astrocytoma cell line (U373) and mouse embryonic fibroblasts (MEFs), both obtained from ATCC (Manassas, VA, USA), and Vero cell sublineage 76 [26], were cultivated in Dulbecco’s modified Eagle’s medium (DMEM) supplemented with 1 × GlutaMAX™, 10 µg/mL gentamicin, and 10% fetal bovine serum. All cultured cells were maintained under the conditions of 37 °C temperature, 5% CO2, and 80% humidity. […]
A variety of antiherpesviral and non-herpesviral drug activities were assessed by the cell culture-based viral replication systems, as described elsewhere. […] After incubation at 37 °C for 3 days, iSLK.219 cells were fixed with 10% formalin, washed with PBS, and used for a quantitation of RFP reporter signal by PicoMD counting (ImageXpress® Pico device, Molecular Devices LLC, San Jose, CA, USA). […]
For orientation: Quantitative PCR measures a nucleic acid by following its amplification.

Among the data in PMC11435438, “Cyclin-Dependent Kinase 8 Represents a Positive Regulator of Cytomegalovirus Replication and a Novel Host Target for Antiviral Strategies” (Pharmaceutics, 2024) are EC50 values, retold here.

SMILES strings stand for the structures.

Take `Cc1n[nH]c2ncc(C(=O)N3CCC[C@H]3c3ccc(Cl)cc3)cc12` [MSC-2530818]: the EC50 in assay [1] turned out to be 18.5 ± 11.2 nM; in assay [2] it was 21 ± 26.5 nM.

As to `CN(C)C(=O)Cn1cc(-c2ccc(-c3cncc4ccccc34)cc2)cn1` [BI-1347], the EC50 in assay [1] worked out at 10.8 ± 5.73 nM; in assay [2], 11.6 ± 22.6 nM; in assay [3] it was 860 ± 1550 nM.

As for `Cn1ncc2cc(-c3cnc(N)c(Cl)c3N3CCC4(CCNC4=O)CC3)ccc21` [CCT-151921], the EC50 came out at 16.3 ± 7.13 nM in assay [1], 31 ± 18 nM in assay [2] and 3670 ± 3000 nM in assay [3].

What is called EC50 is the concentration needed to bring the measured effect to its halfway point.
